pEC50, pIC50: −log10 of the molar value. Like-named read-outs stand apart in the source and are kept apart here.
Tests used:
Ramos cells = test: Cytotoxicity in Ramos cells; assay type: cell-based; details: cytotoxicity in Ramos cells, read-out: Ramos Cell EC50
F1F0-ATPase = molecular target: T1, F1F0-ATPase (Bos taurus, UniProt P13621); test: Inhibition of F1F0-ATPase activity in synthesizing ATP; assay type: biochemical; details: inhibition of ATP synthesis by F1F0-ATPase; read-out: ATP Syn IC50
T1 construct: from tissue

Row | Compound | pEC50 (Ramos cells) | pIC50 (F1F0-ATPase) | pEC50 (Ramos cells; Homo sapiens)
1 | CC(N/C(=N/C(=O)c1ccc(F)cc1)Nc1cc(-c2ccc(F)cc2)n[nH]1)C1CCCO1 (centres unmarked) [Compound A-207] | < 5.00 | < 5.00 | 
2 | O=C(/N=C(/NCC1CCCCO1)Nc1cc(-c2ccc(F)cc2)n[nH]1)c1ccc(F)cc1 (centres unmarked) [Compound A-208] | < 5.00 | < 5.00 | 
3 | CCC(C)N/C(=N/C(=O)c1ccc(F)cc1)Nc1cc(-c2ccc(Cl)cc2)n[nH]1 (centres unmarked) [Compound A-209] |  | > 5.00 | > 5.00
4 | CC1(CNC(=NC(=O)c2ccc(Cl)c(F)c2)Nc2cc(-c3ccc(F)cc3)n[nH]2)CCCO1 (centres unmarked) [Compound A-210] |  | > 5.00 | > 5.00
5 | CC1(CNC(=NC(=O)c2ccc(F)c(F)c2)Nc2cc(-c3ccc(Cl)cc3)n[nH]2)CCCO1 (centres unmarked) [Compound A-211] |  | > 5.00 | < 5.00
6 | CC1(CNC(=NC(=O)c2ccc(Cl)cc2)Nc2cc(-c3cc(F)cc(F)c3)n[nH]2)CCCO1 (centres unmarked) [Compound A-212] |  | > 5.00 | > 5.00
7 | CCOC(C)CN/C(=N/C(=O)c1ccc(Cl)c(F)c1)Nc1cc(-c2ccc(F)cc2)n[nH]1 (centres unmarked) [Compound A-213] | > 5.00 | > 5.00 | 
8 | CCOC(C)CN/C(=N/C(=O)c1ccc(F)c(F)c1)Nc1cc(-c2ccc(Cl)cc2)n[nH]1 (centres unmarked) [Compound A-214] | > 5.00 | > 5.00 | 
9 | O=C(N=C(NCC1CCO1)Nc1cc(-c2ccc(F)cc2)n[nH]1)c1ccc(Cl)c(F)c1 (centres unmarked) [Compound A-215] |  | < 5.00 | < 5.00
10 | CC(C)N/C(=N/C(=O)c1ccc(Cl)c(F)c1)Nc1cc(-c2ccc(F)cc2)n[nH]1 [Compound A-216] | > 5.00 | > 5.00 | 
11 | CCOCC(C)NC(=NC(=O)c1ccc(Cl)c(F)c1)Nc1cc(-c2ccc(F)cc2)n[nH]1 (centres unmarked) [Compound A-217] |  | > 5.00 | > 5.00
12 | COCC(C)NC(=NC(=O)c1ccc(Cl)c(F)c1)Nc1cc(-c2ccc(F)cc2)n[nH]1 (centres unmarked) [Compound A-218] | > 5.00 | > 5.00 | 
13 | CCC(C)N/C(=N/C(=O)c1ccc(Cl)c(F)c1)Nc1cc(-c2ccc(F)cc2)n[nH]1 (centres unmarked) [Compound A-219] | > 5.00 | > 5.00 | 
14 | CC(C)CN/C(=N/C(=O)c1ccc(Cl)c(F)c1)Nc1cc(-c2ccc(F)cc2)n[nH]1 [Compound A-220] | > 5.00 | > 5.00 | 
15 | O=C(N=C(Nc1cc(-c2ccc(F)cc2)n[nH]1)NC1CCCC1)c1ccc(Cl)c(F)c1 [Compound A-221] |  | > 5.00 | > 5.00
16 | O=C(/N=C(\Nc1cc(-c2ccc(F)cc2)n[nH]1)NC1CCC1)c1ccc(Cl)c(F)c1 [Compound A-222] | > 5.00 | > 5.00 | 
17 | O=C(N=C(NCC1CCO1)Nc1cc(-c2ccc(Cl)cc2)n[nH]1)c1ccc(F)c(F)c1 (centres unmarked) [Compound A-223] |  | > 5.00 | > 5.00
18 | O=C(N=C(Nc1cc(-c2ccc(Cl)cc2)n[nH]1)NC1CCC1)c1ccc(F)c(F)c1 [Compound A-224] |  | > 5.00 | < 5.00
19 | CCC(C)N/C(=N/C(=O)c1ccc(F)c(F)c1)Nc1cc(-c2ccc(Cl)cc2)n[nH]1 (centres unmarked) [Compound A-225] | > 5.00 | > 5.00 | 
20 | O=C(N=C(Nc1cc(-c2ccc(Cl)cc2)n[nH]1)NC1CCC1)c1ccc(Cl)c(F)c1 [Compound A-226] |  | > 5.00 | > 5.00
21 | COCC(C)NC(=NC(=O)c1ccc(Cl)cc1)Nc1cc(-c2cc(F)cc(F)c2)n[nH]1 (centres unmarked) [Compound A-228] | < 5.00 | > 5.00 | 

Row | Compound | pEC50 (Ramos cells) | pIC50 (F1F0-ATPase) | pEC50 (Ramos cells; Homo sapiens)
22 | O=C(/N=C(\Nc1cc(-c2cc(F)cc(F)c2)n[nH]1)NC1CCCC1)c1ccc(Cl)cc1 [Compound A-229] | > 5.00 | > 5.00 | 
23 | CC(C)N/C(=N/C(=O)c1ccc(Cl)cc1)Nc1cc(-c2cc(F)cc(F)c2)n[nH]1 [Compound A-230] | > 5.00 | > 5.00 | 
24 | O=C(N=C(Nc1cc(-c2cc(F)cc(F)c2)n[nH]1)NC1CCC1)c1ccc(Cl)cc1 [Compound A-231] |  | > 5.00 | > 5.00
25 | CC(C)(C)NC(=NC(=O)c1ccc(Cl)cc1)Nc1cc(-c2cc(F)cc(F)c2)n[nH]1 [Compound A-232] |  | > 5.00 | > 5.00
26 | CC(C)CNC(=NC(=O)c1ccc(Cl)cc1)Nc1cc(-c2cc(F)cc(F)c2)n[nH]1 [Compound A-233] |  | > 5.00 | > 5.00
27 | CCC(C)N/C(=N/C(=O)c1ccc(Cl)cc1)Nc1cc(-c2cc(F)cc(F)c2)n[nH]1 (centres unmarked) [Compound A-234] | > 5.00 | > 5.00 | 
28 | CCOCCN/C(=N/C(=O)c1ccc(F)c(F)c1)Nc1cc(-c2ccc(F)cc2)n[nH]1 [Compound A-235] | > 5.00 | > 5.00 | 
29 | O=C(/N=C(\Nc1cc(-c2ccc(Cl)cc2)n[nH]1)NC1CCC1)c1ccc(C(F)(F)F)cc1 [Compound A-236] | > 5.00 | > 5.00 | 
30 | CCOCC(C)NC(=NC(=O)c1ccc(C(F)(F)F)cc1)Nc1cc(-c2ccc(Cl)cc2)n[nH]1 (centres unmarked) [Compound A-237] | > 5.00 | > 5.00 | 
31 | COCC(C)NC(=NC(=O)c1ccc(C(F)(F)F)cc1)Nc1cc(-c2ccc(Cl)cc2)n[nH]1 (centres unmarked) [Compound A-238] |  | > 5.00 | > 5.00
32 | O=C(N=C(Nc1cc(-c2ccc(Cl)cc2)n[nH]1)NC1CCCC1)c1ccc(C(F)(F)F)cc1 [Compound A-239] |  | > 5.00 | < 5.00
33 | CC(C)CN/C(=N/C(=O)c1ccc(C(F)(F)F)cc1)Nc1cc(-c2ccc(Cl)cc2)n[nH]1 [Compound A-240] | > 5.00 | > 5.00 | 
34 | CC(C)N/C(=N/C(=O)c1ccc(C(F)(F)F)cc1)Nc1cc(-c2ccc(Cl)cc2)n[nH]1 [Compound A-241] | > 5.00 | > 5.00 | 
35 | CCOC[C@H](C)NC(=NC(=O)c1ccc(F)cc1)Nc1cc(-c2cc(F)cc(F)c2)n[nH]1 [Compound A-242] |  | > 5.00 | > 5.00
36 | O=C(/N=C(\Nc1cc(-c2cc(F)cc(F)c2)n[nH]1)NC1CCCC1)c1ccc(F)cc1 [Compound A-243] | > 5.00 | > 5.00 | 
37 | CC(C)CN/C(=N/C(=O)c1ccc(F)cc1)Nc1cc(-c2cc(F)cc(F)c2)n[nH]1 [Compound A-244] | > 5.00 | > 5.00 | 
38 | CC(C)N/C(=N/C(=O)c1ccc(F)cc1)Nc1cc(-c2cc(F)cc(F)c2)n[nH]1 [Compound A-245] | > 5.00 | > 5.00 | 
39 | COCC(C)NC(=NC(=O)c1ccc(F)c(F)c1)Nc1cc(-c2cc(F)cc(Cl)c2)n[nH]1 (centres unmarked) [Compound A-246] |  | > 5.00 | > 5.00
40 | CCOC[C@H](C)N/C(=N/C(=O)c1ccc(F)c(F)c1)Nc1cc(-c2cc(F)cc(Cl)c2)n[nH]1 [Compound A-247] |  | > 5.00 | > 5.00
41 | O=C(N=C(Nc1cc(-c2ccc(F)cc2)n[nH]1)NC1CCCC1)c1ccc(Cl)cc1 [Compound A-248] |  | > 5.00 | > 5.00
42 | CC(C)CNC(=NC(=O)c1ccc(Cl)cc1)Nc1cc(-c2ccc(F)cc2)n[nH]1 [Compound A-249] |  | > 5.00 | > 5.00

Row | Compound | pEC50 (Ramos cells) | pIC50 (F1F0-ATPase) | pEC50 (Ramos cells; Homo sapiens)
43 | CC(C)N/C(=N/C(=O)c1ccc(Cl)cc1)Nc1cc(-c2ccc(F)cc2)n[nH]1 [Compound A-250] | > 5.00 | > 5.00 | 
44 | O=C(/N=C(\Nc1cc(-c2ccc(Cl)cc2)n[nH]1)NC1CCC1)c1ccc(F)cc1 [Compound A-251] | > 5.00 | > 5.00 | 
45 | CCOCC(C)NC(=NC(=O)c1ccc(F)cc1)Nc1cc(-c2ccc(Cl)cc2)n[nH]1 (centres unmarked) [Compound A-252] |  | > 5.00 | > 5.00
46 | O=C(/N=C(\Nc1cc(-c2ccc(Cl)cc2)n[nH]1)NC1CCCC1)c1ccc(F)cc1 [Compound A-253] | > 5.00 | > 5.00 | 
47 | CC(C)CN/C(=N/C(=O)c1ccc(F)cc1)Nc1cc(-c2ccc(Cl)cc2)n[nH]1 [Compound A-254] | > 5.00 | > 5.00 | 
48 | CC(C)NC(=NC(=O)c1ccc(F)cc1)Nc1cc(-c2ccc(Cl)cc2)n[nH]1 [Compound A-255] |  | > 5.00 | > 5.00
49 | CCOCC(C)NC(=NC(=O)c1cccc(F)c1)Nc1cc(-c2ccc(F)cc2)n[nH]1 (centres unmarked) [Compound A-256] | > 5.00 | > 5.00 | 
50 | CC(C)CN/C(=N/C(=O)c1cccc(F)c1)Nc1cc(-c2ccc(F)cc2)n[nH]1 [Compound A-257] | > 5.00 | > 5.00 | 
51 | CCOCC(C)NC(=NC(=O)c1ccc(F)c(F)c1)Nc1cc(-c2ccc(Cl)cc2)n[nH]1 (centres unmarked) [Compound A-258] | > 5.00 | > 5.00 | 
52 | O=C(N=C(Nc1cc(-c2ccc(F)cc2)n[nH]1)NC1CCC1)c1ccc(F)c(F)c1 [Compound A-259] |  | > 5.00 | > 5.00
53 | O=C(/N=C(\Nc1cc(-c2ccc(F)cc2)n[nH]1)NC1CCCC1)c1ccc(F)c(F)c1 [Compound A-260] | > 5.00 | > 5.00 | 
54 | CC(C)CN/C(=N/C(=O)c1ccc(F)c(F)c1)Nc1cc(-c2ccc(F)cc2)n[nH]1 [Compound A-261] | > 5.00 | > 5.00 | 
55 | CC(C)N/C(=N/C(=O)c1ccc(F)c(F)c1)Nc1cc(-c2ccc(F)cc2)n[nH]1 [Compound A-262] | > 5.00 | > 5.00 | 
56 | CCOCC(C)NC(=NC(=O)c1ccc(F)c(F)c1)Nc1cc(-c2ccc(F)cc2)n[nH]1 (centres unmarked) [Compound A-263] | > 5.00 | > 5.00 | 
57 | O=C(N=C(Nc1cc(-c2ccc(F)cc2)n[nH]1)NC1CCC1)c1ccc(Cl)cc1 [Compound A-264] |  | > 5.00 | > 5.00
58 | CCOC[C@H](C)NC(=NC(=O)c1ccc(Cl)cc1)Nc1cc(-c2ccc(F)cc2)n[nH]1 [Compound A-265] |  | > 5.00 | > 5.00
59 | O=C(/N=C(/NCC1CCO1)Nc1cc(-c2ccc(F)cc2)n[nH]1)c1ccc(F)c(F)c1 (centres unmarked) [Compound A-266] | > 5.00 | > 5.00 | 
60 | CCOCC(C)N/C(=N/C(=O)c1ccc(F)c(F)c1)Nc1cc(-c2ccc(F)cc2)n[nH]1 (centres unmarked) [Compound A-267] | > 5.00 | > 5.00 | 
61 | CCC(COC)N/C(=N/C(=O)c1ccc(F)c(F)c1)Nc1cc(-c2ccc(F)cc2)n[nH]1 (centres unmarked) [Compound A-268] | > 5.00 | > 5.00 | 

From patent publication US9139532B2, “Pyrazolyl guanidine F1F0-atpase inhibitors and therapeutic uses thereof” (Lycera Corporation, priority 2010, dated 2015)
